Data on one compound can be found in paper PMC10511417, “Salmonid polysialyltransferases to generate a variety of sialic acid polymers” (Scientific Reports, 2023).

The assay concerns T1, CmaST8Sia IV (CmaΔ28ST8Sia IV; fish ST8Sia IV).
T1 construct: gene st8sia4; soluble Δ28 form lacking the first 28 residues (cytoplasmic tail and transmembrane domain), N-terminal 3xFLAG (p3×FLAG-CMV9), secreted by HEK293 cells; crude culture medium; ~52 kDa N-glycosylated; cDNA cloned from C. maraena with 1074 bp amplicon; printed XM_041897387 is Coregonus clupeaformis homologue
The experiment in a line: MicroPlate Sialyltransferase Assay (click biotinylation, anti-biotin-HRP), Michaelis-Menten fit. To be noted: acceptor CD166/ALCAM 400 ng; cacodylate buffer pH 6.4, 27 °C, 4 h; 0-100 µM donor; crude culture medium as enzyme; read-out: apparent Km. Format: biochemical, Coregonus maraena.

For `C#CCCC(=O)N[C@H]1[C@H]([C@H](O)[C@H](O)CO)OC(OP(=O)(O)OC[C@H]2O[C@@H](n3ccc(N)nc3=O)[C@H](O)[C@@H]2O)(C(=O)O)C[C@@H]1O` (stereo partly shown) [CMP-SiaNAl], the Km (in general, the substrate concentration at which the rate is half of its maximum) came out at 17.6 ± 2.52 µM.
